According to patent US12637658B2, “Method for gene transfer into gamma-delta type T cell” (Mie University, priority 2018, dated 2026):

Assays:
γδT cells [1] = assay: Comparison of compound 7 with zoledronate: proliferation and purity of γδT cells (IL-2 culture); format: cell-based, human; conditions: for effect on cell proliferation: Day 8, IL-2 300 U/mL
Description: Peripheral blood monocytes were collected from healthy subjects (n=8, HD1 to HD8) in two experiments (n=4 in each experiment). On Day 0, 1.5×10^6 of the collected peripheral blood monocytes were added to each well of 24-well plate. […] Then, on Day 1, IL-2 (300 U/mL) was added. The IL-2 is a cytokine used for the proliferation of the γδT cells according to the reports (non-patent documents 5 and 6). On Day 6, the cells of one well were diluted 2-fold into two wells. The number of cells was counted. On Day 7, the cells of two wells were diluted 2-fold into four wells, and IL-2 (300 U/mL) was further added. On Day 8, half-volume (about 3 mL) of the cells were diluted 6-fold to 18 mL, and cultured in a T75 flask. On Day 8 and Day 11, the number of cells was counted and cell purity was measured by flow cytometry analysis.

γδT cells [2] = assay: Proliferation of γδT cells from peripheral blood monocytes with compound 7, IL-7 and IL-15; format: cell-based, human; conditions: for ratio of the γδT cells: Day 11
Description: The monocytes were prepared from peripheral blood of two healthy subjects by Ficoll. Personal agreement for the blood collection was achieved based on the research ethics code of the medical school of Mie University. The monocytes adjusted to 1.5×10^6 cells/mL with the culture solution of Yssel containing 10% human AB serum were cultured for one day in the presence of tetrakispivaloyloxymethyl 2-(thiazole-2-ylamino) ethylidene-1,1-bisphosphonate (compound 7, 1 μM), and then added with 25 ng/mL of IL-7 (Miltenyi Biotec, catalog number: 170-076-111) and 25 ng/mL of IL-15 (Miltenyi Biotec, catalog number: 170-076-114), and further cultured for 10 days. The frequency of the γδT cells in the monocyte population were analyzed by flow cytometry (FACSCANTO II, Becton Dickinson). As a result, the ratio of the γδT cells at the start of culture (Day 0) was 2.7% for donor 1 (HD1) and 1.7% for donor 2 (HD2), respectively. […] Peripheral blood of healthy human normally contains 1 to 3% of the γδT cells. However, approximately 1×10^8 of γδT cell populations could be prepared in high-purity from 1.5 mL of peripheral blood.
A culture solution of Yssel containing 10% human AB serum was used as the culture solution. As a result, rapid cell proliferation was observed from about Day 8 after the culture. The number of cells on Day 13 was 3×10^8, which was about 5000 times (FIG. 1B).
As comparison, IL-7 and IL-15 in the culture solution were replaced by IL-2 (PROLEUKIN, Chiron Therapeutics), and monocytes were cultured.

[3] = compound 7 1 μM vs zoledronate 5 μM
[4] = compound 7 1 μM, IL-7 and IL-15 25 ng/mL

Compound | effect on cell proliferation (γδT cells [1]; [3]) | effect of promoting cell proliferation by IL-7 and IL-15 on further addition of IL-2 (γδT cells [2]; monocytes stimulated with compound 7) | start of rapid cell proliferation (γδT cells [2]; [4]) [days] | γδT cell populations prepared in high-purity from 1.5 mL of peripheral blood (γδT cells [2]; [4]) | ratio of the γδT cells (γδT cells [2]; donor 1 (HD1), compound 7 1 μM, IL-7 and IL-15 25 ng/mL, 2.7% at Day 0) [%] | ratio of the γδT cells (γδT cells [2]; donor 2 (HD2), compound 7 1 μM, IL-7 and IL-15 25 ng/mL, 1.7% at Day 0) [%] | number of cells on Day 13 (γδT cells [2]; from 3×10^6 monocytes (3 mL peripheral blood), compound 7 1 μM, IL-7 and IL-15 25 ng/mL) | fold increase of cells on Day 13 (γδT cells [2]; from 3×10^6 monocytes, compound 7 1 μM, IL-7 and IL-15 25 ng/mL) | frequency of the γδT cells in lymphocyte fraction (P1) (Vd2/P1) (γδT cells [1]; Day 8 and Day 11, compared to the zoledronate treatment group, t test) | cell proliferation-stimulating effect compared to zoledronate (γδT cells [1]; Day 11, Experiment 1, subjects HD1 to HD4, compound 7 1 μM vs zoledronate 5 μM) | cell proliferation-stimulating effect compared to zoledronate (γδT cells [1]; Day 11, Experiment 2, subject) | cell proliferation-stimulating effect compared to zoledronate (γδT cells [1]; Day 11, Experiment 2, subject HD8) | cell proliferation-stimulating effect compared to zoledronate (γδT cells [1]; Day 11, Experiment 2, subjects HD6 and HD7) | proliferation of γδT cells compared to zoledronate, average (γδT cells [1]; Day 11, Experiments 1 and 2, n=8, p=0.008, t test) | frequency of the γδT cells in CD3 positive cells (Vd2/CD3) (γδT cells [1]; compared to the zoledronate treatment group, t test)
O=P(O)(O)C(O)(Cn1ccnc1)P(=O)(O)O [zoledronate, reference compound] | almost no difference |  |  |  |  |  |  |  |  |  |  |  |  |  | 
IL-2: interleukin-2 (PROLEUKIN, Chiron Therapeutics), cytokine used for proliferation of γδT cells |  | not further increased |  |  |  |  |  |  |  |  |  |  |  |  | 
CC(C)(C)C(=O)OCOP(=O)(OCOC(=O)C(C)(C)C)C(CNc1nccs1)P(=O)(OCOC(=O)C(C)(C)C)OCOC(=O)C(C)(C)C [compound 7, tetrakispivaloyloxymethyl 2-(thiazole-2-ylamino)ethylidene-1,1-bisphosphonate] | almost no difference |  | ~8 | approximately 1×10^8 | 97.1 | 94.5 | 3×10^8 | about 5000 times | significantly higher | strongly recognized | the same level | weak | greater | significantly excellent | significantly higher
